Measured values from patent publication US4605744A, “Imidazole derivatives” (Hoffmann-La Roche Inc., priority 1985, dated 1986).
Structures can show the parent of a compound that is named as a salt. Where two headings read alike, the source gives them in different places.

Assays:
[1] = system: S. pyogenes 4; test: In vivo antibacterial activity (PD50); details: Streptococcus pyogenes, 4, sc, sc; challenge 100 LD50s; 2 treatments; Table 10; read-out: PD50
[2] = system: S. typhi P58A; test: In vitro antibacterial activity (MIC); type: cell-based; details: Salmonella enterica, TYPHI
Summary of the method: (§1)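 Twofold-style dilution series (128 to 0.008 μg/ml) made in Mueller-Hinton broth, dispensed, then inoculated with 1.5 μl of a 10^-2 overnight-culture dilution. Plates sealed, held overnight at 37° C, inspected with a viewer.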

[3] = system: K. pneumoniae A; test: In vitro antibacterial activity (MIC); type: cell-based; details: Klebsiella pneumoniae, K. pneumoniae A; read-out: MIC
Summary of the method: as §1

[4] = system: P. vulgaris ATCC 6380; test: In vitro antibacterial activity (MIC); type: cell-based; details: Proteus vulgaris, ATCC6380, P. vulgaris ATCC 6380; read-out: MIC
Summary of the method: as §1

[5] = system: E. cloacae P99; test: In vitro antibacterial activity (MIC); type: cell-based; details: Enterobacter cloacae, P99, E. cloacae P99
Summary of the method: as §1

[6] = system: P. rettgeri ATCC 9250; test: In vitro antibacterial activity (MIC); type: cell-based; details: Providencia rettgeri, ATCC9250, P. rettgeri ATCC 9250; read-out: MIC
Summary of the method: as §1

[7] = system: S. pneumoniae 6302; test: In vitro antibacterial activity (MIC); type: cell-based; details: Streptococcus pneumoniae, 6302, S. pneumoniae 6302; read-out: MIC
Summary of the method: as §1

[8] = system: P. mirabilis 90; test: In vitro antibacterial activity (MIC); type: cell-based; details: Proteus mirabilis, 90, P. mirabilis 90; read-out: MIC
Summary of the method: as §1

[9] = system: S. pneumoniae SC; test: In vitro antibacterial activity (MIC); type: cell-based; details: Streptococcus pneumoniae, read-out: MIC
Summary of the method: as §1

[10] = system: K. pneumoniae 5096; test: In vitro antibacterial activity (MIC); type: cell-based; details: Klebsiella pneumoniae; K. pneumoniae 5096; read-out: MIC
Summary of the method: as §1

[11] = system: E. coli R-563; test: In vitro antibacterial activity (MIC); type: cell-based; details: Escherichia coli, R563, E. coli R-563; read-out: MIC
Summary of the method: as §1

[12] = system: E. cloacae 5699; test: In vitro antibacterial activity (MIC); type: cell-based; details: Enterobacter cloacae, 5699, E. cloacae 5699; read-out: MIC
Summary of the method: as §1

[13] = system: S. pneumoniae 6301; test: In vitro antibacterial activity (MIC); type: cell-based; details: Streptococcus pneumoniae, 6301, S. pneumoniae 6301; read-out: MIC
Summary of the method: as §1

[14] = system: P. mirabilis 190; test: In vitro antibacterial activity (MIC); type: cell-based; details: Proteus mirabilis, 190, P. mirabilis 190; read-out: MIC
Summary of the method: as §1

[15] = system: C. freundii 8ASM; test: In vitro antibacterial activity (MIC); type: cell-based; details: Citrobacter freundii, 8ASM, C. freundii 8ASM; read-out: MIC
Summary of the method: as §1

[16] = system: P. aeruginosa 503-56; test: In vitro antibacterial activity (MIC); type: cell-based; details: Pseudomonas aeruginosa, 50356, P. aeruginosa 503-56; read-out: MIC
Summary of the method: as §1

[17] = system: S. pyogenes 4; test: In vitro antibacterial activity (MIC); type: cell-based; details: Streptococcus pyogenes, 4, S. pyogenes 4; read-out: MIC
Summary of the method: as §1

[18] = system: E. cloacae 24; test: In vitro antibacterial activity (MIC); type: cell-based; details: Enterobacter cloacae, 24, E. cloacae 24; read-out: MIC
Summary of the method: as §1

[19] = system: S. marcescens S3; test: In vitro antibacterial activity (MIC); type: cell-based; details: Serratia marcescens; S. marcescens S3; read-out: MIC
Summary of the method: as §1

[20] = system: C. freundii CDC6; test: In vitro antibacterial activity (MIC); type: cell-based; details: Citrobacter freundii, CDC6, C. freundii CDC6; read-out: MIC
Summary of the method: as §1

[21] = system: P. mirabilis 503-1136; test: In vitro antibacterial activity (MIC); type: cell-based; details: Proteus mirabilis, 5031136, P. mirabilis 503-1136; read-out: MIC
Summary of the method: as §1

[22] = system: P. aeruginosa 8710; test: In vitro antibacterial activity (MIC); type: cell-based; details: Pseudomonas aeruginosa; P. aeruginosa 8710; read-out: MIC
Summary of the method: as §1

[23] = system: E. aerogenes 8; test: In vivo antibacterial activity (PD50); details: Klebsiella aerogenes, 8, sc, read-out: PD50, sc; challenge 24 LD50s; 2 treatments; Table 10
[24] = system: E. coli BC5524; test: In vivo activity alone and in combination (PD50, FIC); details: Escherichia coli, BC5524; sc; alone; read-out: PD50 (alone)
Description: (§2) In Tables 9-14, the results of the in vivo activity against certain microorganisms of compounds I, M and N as given. […] The results in these Tables and the PD50 's were determined by the procedure set forth on page 160 in Beskid et al., Antimicrobial Agents and Chemotherapy, Vol. 20, No. 2 pp. 159-167 (Aug. 1981) for "in vivo studies".
(§3) In the Tables, the fractional inhibitory concentration index (FIC) for synergistic combination of a compound of this invention (X) with known antibiotic compound (Y) is determined by the following formula:
(§4) FIC=(PD50 (X combination)/PD50 (X alone)+(PD50 (Y
(§5) combination)/PD50 (Y alone)
(§6) An FIC of ≤0.60 is indicative of synergy. The synergy rating in the Tables is as follows:
(§7) In the combination, the parts are parts by weight, i.e. 10 to 1 is 10 parts by weight to 1 part by weight.

[25] = system: E. cloacae 4633; test: as above; details: Enterobacter cloacae, 4633; sc; alone; read-out: PD50 (alone)
Description: as §2, §3, §4, §5, §6, §7

[26] = system: K. pneumoniae 503-990A; test: as above; details: Klebsiella pneumoniae, 503990A, sc, alone
Description: as §2, §3, §4, §5, §6, §7

[27] = system: K. pneumoniae R2296; test: as above; details: Klebsiella pneumoniae, sc, alone
Description: as §2, §3, §4, §5, §6, §7

[28] = system: K. pneumoniae 39; test: as above; details: Klebsiella pneumoniae, 39, sc, alone
Description: as §2, §3, §4, §5, §6, §7

[29] = system: P. aeruginosa 503-56; test: In vivo antibacterial activity (PD50); details: Pseudomonas aeruginosa, 50356, sc, 2 treatments, Table 10
[30] = system: E. coli 257; test: In vivo antibacterial activity (PD50); details: Escherichia coli, 257, sc, challenge >10^4 LD50s, 1 treatment, Table 10
[31] = system: E. cloacae 6951; test: In vivo antibacterial activity (PD50); details: Enterobacter cloacae, 6951, sc, challenge 562 LD50s, 2 treatments, Table 10
[32] = system: E. coli 257; test: In vitro antibacterial activity (MIC, Mueller-Hinton broth); type: cell-based; details: Escherichia coli, 257, E. coli 257; read-out: MIC
Description: Drug dilutions are prepared in Mueller-Hinton broth ranging from 128 to 0.008 μg/ml. The diluted agents are dispensed in 100 μl amounts into the wells of a 96-well tray and used immediately or frozen at -10° to -70° C. until needed. Using an automated inoculator, 1.5 μl of a 10^-2 dilution of an overnight culture is added to each well of the tray. The tops of the trays are then sealed using transparent tape and incubated overnight at 37° C. The trays are examined with the aid of a viewer. The lowest concentration at which no growth is observed is considered to be the minimum inhibitory concentration (MIC).

[33] = system: P. aeruginosa 8710; test: In vivo antibacterial activity (PD50); details: Pseudomonas aeruginosa, 8710, sc, 2 treatments, Table 10, read-out: PD50

## CC1(C)S[C@@H]2[C@H](N=CN3CCC(CC4=NCCN4)CC3)C(=O)N2[C@H]1C(=O)O [M, [2S-(2alpha,5alpha,6beta)]-6-[[[4-[(4,5-dihydro-1H-imidazol-2-yl)methyl]-1-piperidinyl]methylene]amino]-3,3-dimethyl-7-oxo-4-thia-1-azabicyclo[3.2.0]heptane-2-carboxylic acid hydrochloride]
[1]
  ED50: < 2 mg/kg
[2]
  MIC: 0.062 µg/mL
[3]
  MIC: 0.062 µg/mL
[4]
  MIC: 0.25 µg/mL
[5]
  MIC: 0.062 µg/mL
[6]
  MIC: 0.5 µg/mL
[7]
  MIC: 1 µg/mL
[8]
  MIC: 0.5 µg/mL
[9]
  MIC: 1 µg/mL
[10]
  MIC: > 128 µg/mL
[11]
  MIC: 0.062 µg/mL
[12]
  MIC: 0.25 µg/mL
[13]
  MIC: 1 µg/mL
[14]
  MIC: 0.5 µg/mL
[15]
  MIC: 0.062 µg/mL
[16]
  MIC: 32 µg/mL
[17]
  MIC: 1 µg/mL
[18]
  MIC: 0.5 µg/mL
[19]
  MIC: 0.125 µg/mL
[20]
  MIC: 0.125 µg/mL
[21]
  MIC: 8 µg/mL
[22]
  MIC: 64 µg/mL
[23]
  ED50: 60 mg/kg
[24]
  ED50: 80 mg/kg
[25]
  ED50: 34 mg/kg
[26]
  ED50: 9.4 mg/kg
[27]
  ED50: > 250 mg/kg
[28]
  ED50: 5 mg/kg
[29]; challenge 4.7 LD50s
  ED50: 67 mg/kg
[29]; challenge 100 LD50s
  ED50: 100 mg/kg
[30]
  ED50: 1.5 mg/kg
[31]
  ED50: 15 mg/kg
[32]
  MIC: 0.125 µg/mL
[33]; challenge 10 LD50s
  ED50: 54 mg/kg
[33]; challenge 562 LD50s
  ED50: 59 mg/kg
